Assay results published in patent publication US20250163116A1, “NEW METHOD TO TREAT INFECTIOUS DISEASES” (INSERM (INSTITUT NATIONAL DE LA SANTÉ ET DE LA RECHERCHE …, priority 2022, published 2025).

Tests used:
[1] = test system: SCID mice grafted with human skin infected with Nm 2C4.3; assay: Outcome of meningococcal infection in SCID mice grafted with human skin (survival, with or without antibiotics); assay type: in vivo; details: 200 mg kg-1 cefotaxime
Protocol: A-D, SCID mice grafted with human skin were infected intravenously with Nm 2C4.3 wild-type strain (5×10^6 bacteria); 2 h after bacterial challenge, mice received recombinant human ANGPTL4 (1 μg, intravenously), cefotaxime (200 mg kg-1, intraperitoneally) alone or in combination with ANGPTL4 or vehicle as a control. 18 h following bacterial challenge, ANGPTL4 (1 μg) and cefotaxime (200 mg kg-1) were re-administered. This experiment was performed twice with n=3 or 4 mice per group, using skin from two different donors. A, A schematic representation of the protocol used in vivo. B, Bacteraemia 4, 18, 48 and 72 h post-infection (mean±s.e.m.). C, Survival curve: * P=0.0275; two-sided log-rank Mantel-Cox survival analysis. D, Thrombosis within the skin grafts at 4 h post-infection was assessed by immunofluorescence analysis and quantified as described in FIG. 8 (error bars show mean±s.e.m.; 40 vessels per mouse were analysed; n=4 mice per group; *** P<0.001; two-tailed Student's t-test.
Six-week-old CB17/Icr-Prkdcscid female mice were obtained from Janvier Labs. Human skin tissues were obtained from adult patients undergoing plastic surgery in the Service de Chirurgie Plastique et Reconstructive of the Groupe Hospitalier Saint-Joseph. […] Experimental procedures were performed as previously described in accordance with the guidelines of the Institut National de la Santé et de la Recherche Médicale and conformed to the European ethical legislation (Directive 2010/63/EU). The experimental protocol was approved by the Animal Experimentation Ethics Committee of the Université Paris Descartes (consent forms CEEA34.O.J.L.039.12 and 2018012515596498). […] A skin flap was created and a full thickness human skin graft was placed onto the wound bed. The transplants were held in place with 6-0 non-absorbable monofilament suture materials, and the flap was then sutured above the transplant. Grafted mice were infected 4-6 weeks after human skin transplantation. N. meningitidis was grown overnight at 37° C. on GCB agar plates prepared without iron and supplemented with 15 μM deferoxamine (Desferal, Novartis). Bacterial colonies were harvested and cultured in RPMI media with 1% BSA medium and 0.06 μM deferoxamine with gentle agitation to reach the exponential phase of growth. Bacteria were then resuspended in physiological saline solution. Mice were infected intravenously with 200 μl (5×10^6 bacteria) of this bacterial suspension. A 10 mg dose of human holotransferrin (R&D Systems) was administered intraperitoneally just before infection. Mice were killed at 4 h after infection. Human skin grafts were carefully collected using a sterile cutter. The tissue was washed in PBS and fixed overnight at 4° C. in 4% paraformaldehyde in phosphate buffer. After washing in phosphate buffer, the specimens were embedded in OCT medium and then frozen at −80° C. Sections of the dermis (7 μm thick) were immobilized on Superfrost Plus microscope slides and subjected to immunofluorescence analysis. Sections were incubated with the primary antibodies for 1 h in PBS/3% BSA then DAPI was added to Alexa-conjugated secondary antibodies for 1 h. After additional washing, coverslips were mounted in glycergel (Dako) and were further analysed using a slide scanner (Lamina, Perkin Elmer). Analysis of the images was performed using ImageJ software (NIH). […]
We then analysed whether ANGPTL4 could provide a beneficial effect when administered with antibiotics.

[2] = test system: Balb/c mice challenged with LPS; assay: LPS-induced endotoxemia (sepsis) in mice; assay type: in vivo; details: LPS 5 mg kg-1 i.p.; 2 μg/mouse i.v.
Protocol: FIG. 9: ANGPTL4 protects against LPS-induced endotoxemia by preventing vascular dysfunction and organ failure. A-B, Balb/c mice received LPS (5 mg kg-1, i.p.); 30 min after LPS challenge, mice received recombinant human ANGPTL4 (2 μg, intravenously), or vehicle as a control. A, A schematic representation of the protocol used. B, Survival curve (n=16 mice per group): **** P<0.0001; two-sided log-rank Mantel-Cox survival analysis. C,D, Balb/c mice received LPS (5 mg kg-1, i.p.); 30 min after LPS challenge, mice received nANGPTL4 (2 μg, intravenously), or vehicle as a control. C, A schematic representation of the protocol used. D, Survival curve (n=6 mice per group): ** P=0.0033; two-sided log-rank Mantel-Cox survival analysis. E, F, Balb/c mice received LPS (5 mg kg-1, i.p.); 30 min after LPS challenge, mice received Peptide 1 (2 μg, intravenously), or vehicle as a control. E, A schematic representation of the protocol used. F, Survival curve (n=6 mice per group): * P=0.0163; two-sided log-rank Mantel-Cox survival analysis. G, Balb/c mice received LPS (5 mg kg-1. i.p.): 30 min after LPS challenge, mice received recombinant human peptide P9 (2 μg. intravenously). or vehicle as a control. Survival curves (n=6 mice per group). *** P<0.001: two-sided log-rank Mantel-Cox survival analysis. H. Balb/c mice received LPS (4 mg kg-1. i.p.) together with anti-ANGPTL4 blocking antibody (10 μg kg-1. i.v) or vehicle as a control. 18 h after LPS challenge. mice were perfused with Evans blue for 1 h. were killed and brain were extracted. Quantification analysis of Evans blue extravasation (n=4 mice per group). Bars and error bars show the mean±s.e.m., respectively, from two independent experiments: *** P<0.001: NS, not significant (P>0.05) one-way ANOVA Tukey's multiple comparison test.
Female BALB/c mice, obtained from Janvier Labs, 9-10 weeks of age, were administered LPS at 5 mg/kg intraperitoneally and survival was monitored for 72 h (n=12 per group). BALB/c mice were randomly divided into 2 groups: LPS and LPS+Angptl4. Angptl4 (2 μg/mice) or vehicle (physiological saline solution) was administered intravenously 30 min after LPS challenge. In some experiments, blood serum, kidney and lung were collected at 18 h post-LPS challenge. Kidney and lungs were fixed in 4% PFA, embedded in paraffin, and 5-μm sections were cut from each block and stained with H&E. The stained sections were observed and acquired using a slide scanner (Lamina, Perkin Elmer). Analysis of the images was performed using ImageJ software (NIH).
Since severe endothelial dysfunction, leading to dysregulation of hemostasis and vascular dysfunction, is central to the progression to organ failure during sepsis, we analysed whether ANGPTL4 could play a protective role in sepsis, using a lipopolysaccharide (LPS)-induced endotoxemia (FIG. 9A). After LPS-challenge (5 mg kg-1, i.p.), all mice died within two days (FIG. 9B).

[3] = test system: HDMECs infected with Nm 2C4.3; assay: Integrity of HDMEC monolayers infected with N. meningitidis (VE-cadherin at intercellular junctions, immunofluorescence); assay type: cell-based, human; details: 1 μg/mL added 30 min after initiation of Nm infection, 2 h 30
Protocol: FIG. 1. Exogenous ANGPTL4 exerts protective effects on dermal microvascular endothelial cells infected by N. meningitidis. A. HDMECs were infected with Nm 2C4.3 for 30 min and treated with 1 μg/mL of recombinant human ANGPTL4 for 2 h 30. Cells were fixed and stained for cellular actin, VE-cadherin and DAPI and analyzed by fluorescent microscopy. Quantifications of VE-cadherin enrichment at intercellular junctions and of intercellular spaces area were performed on 30 fields with Image J software. Kruskal-Wallis test ** P<0.001; P<0.0001. B. HDMEC were either uninfected or infected with N. meningitidis 2C4.3 for 30 min and treated with 1 μg mL−1 of recombinant human ANGPTL4, its N-terminal portion (nANGPTL4) or its C-terminal portion (cANGPTL4) for 2 h 30. Caspase-3/7 reagent was added to detect apoptosis in real time over 9 h using the IncuCyte® Live-Cell Analysis System
FIG. 2: Vascular protection is conferred by the N-terminal part of ANGPTL4. A, Schematic representation of ANGPTL4 structure. ANGPTL4 contains a N-terminal portion (nANGPTL4, aa 26-164) linked to a C-terminal portion (cANGPTL4, aa 164-406) by a cleavable linker. nANGPTL4 contains a highly conserved lipoprotein lipase (LPL) binding domain (aa 44-55), two cysteines on position 76 and 80 involved in protein oligomerization and a coiled-coil domain (aa 100-143). The C-terminal portion encodes a fibrinogen-like domain. B, HDMECs were infected with Nm 2C4.3 for 30 min and treated with 1 μg/mL of recombinant human ANGPTL4, nANGPTL4 or cANGPTL4 for 2 h 30. Cells were fixed and stained for cellular actin, VE-cadherin and DAPI and analyzed by fluorescent microscopy. B. Quantifications of VE-cadherin enrichment at intercellular junctions and of intercellular spaces area were performed on 30 fields with Image J software. Kruskal-Wallis test ** P<0.001, *** P<0.0001 of four independent experiments performed in triplicate.
FIG. 3: Vascular protection is conferred by a novel binding motif (aa 66-80) present in the N-terminal part of ANGPTL4. A, the indicated peptides were derived from nANGPTL4. B, HDMECs were infected with Nm 2C4.3 for 30 min and treated with 1 μg/mL of each peptides. Quantifications of VE-cadherin enrichment at intercellular junctions was performed on 30 fields with Image J software.
FIG. 4: Vascular protection is conferred by interaction of nANGPTL4 with Syndecan-4. A, HDMECs were infected with Nm 2C4.3 for 30 min and treated with 1 μg/mL of recombinant human ANGPTL4, nANGPTL4 or cANGPTL4 in the absence or in the presence of anti-SDC4 antibody for 2 h 30. Cells were fixed and stained for cellular actin, VE-cadherin and DAPI and analysed by fluorescent microscopy. Quantifications of VE-cadherin enrichment at intercellular junctions and of intercellular spaces area were performed on 30 fields with Image J software. Kruskal-Wallis test ** P<0.001, **** P<0.00001, ns1 P=0.2172; ns2 P>0.999 of four independent experiments performed in triplicate. B, HDMECs were transfected with small interfering RNA (siRNA) against SDC4 or non-targeting siRNA controls for 48 h, infected with Nm 2C4.3 for 30 min and treated with 1 μg/mL of recombinant human ANGPTL4, for 2 h 30. Quantifications of VE-cadherin enrichment at intercellular junctions and of intercellular spaces area were performed on 30 fields with Image J software. Kruskal-Wallis test ** P<0.001, *** P<0.0001, of two independent experiments performed in triplicate.
The day of infection, a suspension of the bacteria from an overnight culture on GCB agar plate was adjusted to OD600=0.05 and incubated for 2 h at 37° C. in a pre-warmed cell culture medium. Cells were infected with bacteria at a multiplicity of infection (MOI) of 100 bacteria per cell (OD=0.1) for 30 minutes, washed twice to remove non-adherent bacteria and infection was allowed to proceed for various periods of time. Cells were then washed and fixed in 4% paraformaldehyde for immunofluorescence analysis. […]

Row | Molecule | bactericidal effect (bacteraemia) [1] | mice survival [1] | thrombosis at 4 h post-infection [1] | sepsis-associated mortality / survival rate [2] | protective effect on monolayer integrity (adherens junctions, cell detachment) of infected HDMECs [3]
1 | CO/N=C(\C(=O)N[C@@H]1C(=O)N2C(C(=O)O)=C(COC(C)=O)CS[C@H]12)c1csc(N)n1 [cefotaxime] | strong bactericidal effect | associated with mice survival | did not prevent the triggering of thrombosis |  | 
2 | LSALERRLSACGSAC (Peptide P9) |  |  |  | reduced sepsis-associated mortality rate as efficiently as the full-length protein | completely inhibited infection-induced damages
3 | SALERRLSACGS (Peptide P10) |  |  |  | did not significantly increased the survival rate | no effect
4 | WDEMNVLAHGLLQLGQGLREHAERTRSQLSALERRLSACGSACQGT (Peptide P1) |  |  |  | reduced sepsis-associated mortality rate as efficiently as the full-length protein | sufficient to prevent loss of adherens junctions and cell detachment induced by infection as efficiently as the full-length protein
